In US20260274895A1, “DE NOVO DESIGNED MEMBRANE-TRAVERSING AND ORALLY BIOAVAILABLE MACROCYCLES” (UNIVERSITY OF WASHINGTON, priority 2022, published 2026):
Values joined by “and” are separate entries in the source; they are usually repeats but may differ in a detail not shown here. Equal entries are not always repeated. Where a SMILES comes first, the peptide text is derived from it. [ ]: non-standard residue; d: D form. NMeF = CN[C@@H](Cc1ccccc1)C(=O)O; dNMeF = CN[C@H](Cc1ccccc1)C(=O)O; NMeL = CN[C@@H](CC(C)C)C(=O)O; dNMeL = CN[C@H](CC(C)C)C(=O)O; NMeA = CN[C@@H](C)C(=O)O; dNMeA = CN[C@H](C)C(=O)O; Aib = CC(C)(N)C(=O)O

Assays:
[1] = PAMPA, PAMPA_Papp_Avg (apparent permeability)
[2] = Pharmacokinetics of D10.1 after PO, SQ and IV dosing in mice
[3] = PAMPA
[4] = PO 12.2 mg/kg, individual mice, 12.2 mg/kg
[5] = female, Balb/C, mouse, plasma, po, 12.2 mg/kg
[6] = female, Balb/C, mouse, plasma, sc, 12.2 mg/kg

## CC(C)C[C@@H]1NC(=O)[C@@H](C(C)C)NC(=O)[C@H](CC(C)C)N(C)C(=O)[C@H]2CCCN2C(=O)[C@@H](C(C)C)NC(=O)[C@H]2CCCN2C(=O)[C@@H](C(C)C)NC(=O)[C@@H](Cc2ccccc2)N(C)C(=O)[C@H](CC(C)C)N(C)C1=O (single isomer, unassigned) [Design D9.8.p2, *LvL*L*fvpvp]
[1]
  Papp: 0.255 ×10⁻⁶ cm/s

## CC[C@@H](C)[C@H]1NC(=O)[C@H]2CCCN2C(=O)[C@@H](C)NC(=O)[C@@H](CC(C)C)N(C)C(=O)[C@H]([C@@H](C)CC)NC(=O)[C@@H](C(C)C)NC(=O)[C@@H](CC(C)C)N(C)C(=O)[C@@H]2CCCN2C(=O)[C@@H]2CCCN2C1=O [Design D9.26, piPP*lvI*la] (cyclo(I[dNMeL][dA][dP][dI]PP[dNMeL][dV]))
[1]
  Papp: 1.99 ×10⁻⁶ cm/s

## CC[C@H](C)[C@@H]1NC(=O)[C@@H](CC(C)C)NC(=O)[C@@H]2CCCN2C(=O)[C@@H]2CCCN2C(=O)[C@@H](CC(C)C)NC(=O)[C@@H]2CCCN2C(=O)[C@H]2CCCN2C(=O)[C@@H](C(C)C)NC(=O)[C@@H](C)N(C)C1=O [Design D9.14, PlI*avpPlP] (cyclo([dL]PP[dL]I[dNMeA][dV][dP]P))
[1]
  Papp: 0.421 ×10⁻⁶ cm/s

## CC(C)C[C@H]1NC(=O)[C@H]2CCCN2C(=O)[C@H](CC(C)C)N(C)C(=O)[C@@H](C)N(C)C(=O)[C@@H](Cc2ccccc2)NC(=O)[C@@H](C(C)C)NC(=O)[C@H]2CCCN2C(=O)[C@@H](CC(C)C)NC1=O [Design D8.19, f*a*Lpllpv] (cyclo([NMeL][dP][dL][dL][dP][dV][dF][dNMeA]))
[1]
  Papp: 0.626 ×10⁻⁶ cm/s

## CC(C)C[C@@H]1C(=O)N[C@H](C)C(=O)N[C@@H](C(C)C)C(=O)N2CCC[C@@H]2C(=O)N[C@H](C(C)C)C(=O)N2CCC[C@@H]2C(=O)N2CCC[C@H]2C(=O)N[C@H](C)C(=O)N(C)[C@H](CC(C)C)C(=O)N1C [Design D9.29, vpPa*l*laVp] (cyclo([dA][dNMeL][dNMeL][dA]V[dP][dV][dP]P))
[1]
  Papp: 0.664 ×10⁻⁶ cm/s

## CC[C@@H](C)[C@H]1NC(=O)[C@H]2CCCN2C(=O)[C@@H]2CCCN2C(=O)[C@@H]([C@H](C)CC)NC(=O)[C@@H](Cc2ccccc2)NC(=O)[C@@H](Cc2ccccc2)N(C)C(=O)[C@@H]2CCCN2C(=O)[C@@H](C(C)C)NC1=O [Design D8.33, fiPpivP*f] (cyclo(P[dNMeF][dF][dI]P[dP][dI][dV]))
[1]
  Papp: 6 ×10⁻⁶ cm/s

## CC(C)C[C@@H]1NC(=O)[C@@H]2CCCN2C(=O)[C@@H](Cc2ccccc2)NC(=O)[C@H](C)N(C)C(=O)[C@H](CC(C)C)NC(=O)[C@H](CC(C)C)N(C)C(=O)[C@@H](C)NC(=O)[C@@H](CC(C)C)NC(=O)[C@@H]2CCCN2C(=O)[C@@H](Cc2ccccc2)NC1=O [SEQ ID NO 108, LfPla*LL*AfP] (cyclo(L[NMeA][dF]PL[dF]P[dL][dA][NMeL]))
[1]
  Papp: 3.92 ×10⁻⁶ cm/s

## CC[C@H](C)[C@@H]1NC(=O)[C@H]2CCCN2C(=O)[C@@H]2CCCN2C(=O)[C@@H](C(C)C)NC(=O)[C@@H](C)N(C)C(=O)[C@H](C)N(C)C(=O)[C@@H](CC(C)C)N(C)C(=O)[C@@H](C(C)C)NC1=O [Design D8.26, v*l*A*avPpI] (cyclo(I[dV][dNMeL][NMeA][dNMeA][dV]P[dP]))
[1]
  Papp: 0.544 ×10⁻⁶ cm/s

## CC[C@H](C)[C@@H]1NC(=O)[C@@H](CC(C)C)NC(=O)[C@H](CC(C)C)N(C)C(=O)[C@H](Cc2ccccc2)NC(=O)CN(C)C(=O)[C@@H]2CCCN2C(=O)[C@H](C(C)C)NC(=O)[C@H](Cc2ccccc2)N(C)C(=O)[C@H]2CCCN2C(=O)[C@H](CC(C)C)NC1=O [Design D10.1, lILp*FVP*GF*L]
[2]; IV ([…] per Table 12), mean ±
  Half-life T1/2: 1.123 ± 0.113 h
  Volume of distribution @ steady state VSS: 0.25 ± 0.08 L/kg
  Volume of distribution during elimination phase VZ: 0.32 ± 0.07 L/kg
[2]; PO 12.2 mg/kg, 15 min, AVG
  Plasma level: 2.58 µM
[2]; PO 12.2 mg/kg, 15 min, individual mice, 12.2 mg/kg
  Plasma level: 2.22 µM and 3.26 µM and 2.26 µM
[2]; PO 12.2 mg/kg, 30 min, AVG
  Plasma level: 2.92 µM
[2]; PO 12.2 mg/kg, 30 min, individual mice, 12.2 mg/kg
  Plasma level: 2.49 µM and 3.64 µM and 2.64 µM
[2]; PO 12.2 mg/kg, 60 min, AVG
  Plasma level: 1.78 µM
[2]; PO 12.2 mg/kg, 60 min, individual mice, 12.2 mg/kg
  Plasma level: 1.57 µM and 2.14 µM and 1.64 µM
[2]; PO 12.2 mg/kg, 120 min, AVG
  Plasma level: 0.72 µM
[2]; PO 12.2 mg/kg, 120 min, individual mice, 12.2 mg/kg
  Plasma level: 0.54 µM and 0.8 µM and 0.81 µM
[2]; PO 12.2 mg/kg, 240 min, AVG
  Plasma level: 0.16 µM
[2]; PO 12.2 mg/kg, 240 min, individual mice, 12.2 mg/kg
  Plasma level: 0.13 µM and 0.18 µM and 0.17 µM
[2]; PO 12.2 mg/kg, 360 min, AVG
  Plasma level: 0.07 µM
[2]; PO 12.2 mg/kg, 360 min, individual mice, 12.2 mg/kg
  Plasma level: 0 μM and 0.1 μM (2×)
[2]; PO 12.2 mg/kg, 1440 min, AVG
  Plasma level: 0 µM
[2]; PO 12.2 mg/kg, 1440 min, individual mice
  Plasma level: 0 µM
[2]; PO 12.2 mg/kg, AVG
  AUC0-t: 270.4 µmol·min/L
  AUC0-∞: 279.94 µmol·min/L
  CI/F: 0.000785 L/min
  Cmax: 2920 nM
[2]; PO 12.2 mg/kg, individual mice
  Tmax: 0.5 h
[2]; [4]
  AUC0-t: 216.96 µmol·min/L and 327.78 µmol·min/L and 266.45 µmol·min/L
  AUC0-∞: 226.62 µmol·min/L and 337.03 µmol·min/L and 276.18 µmol·min/L
  CI/F: 0.000944 L/min and 0.000635 L/min and 0.000775 L/min
  Cmax: 2490 nM and 3640 nM and 2640 nM
  T1/2: 0.8313 h and 1.051 h and 1.132 h
[2]; PO (12.2 mg/kg per Table 10), mean
  Apparent clearance CI/F: 0.000785 L/min
[2]; PO (12.2 mg/kg per Table 10), mean ±
  Half-life T1/2: 1.005 ± 0.156 h
[2]; PO, IV dosing as reference, mean ±
  Oral bioavailability F: 7.48 ± 1.79%
[2]; SQ 12.2 mg/kg, 15 min, AVG
  Plasma level: 2.53 µM
[2]; SQ 12.2 mg/kg, 15 min, individual mice
  Plasma level: 1.39 µM and 2.44 µM and 3.75 µM
[2]; SQ 12.2 mg/kg, 30 min, AVG
  Plasma level: 3.55 µM
[2]; SQ 12.2 mg/kg, 30 min, individual mice
  Plasma level: 1.81 µM and 3.69 µM and 5.15 µM
[2]; SQ 12.2 mg/kg, 60 min, AVG
  Plasma level: 3.93 µM
[2]; SQ 12.2 mg/kg, 60 min, individual mice
  Plasma level: 1.87 µM and 4.88 µM and 5.03 µM
[2]; SQ 12.2 mg/kg, 360 min, AVG
  Plasma level: 2.29 µM
[2]; SQ 12.2 mg/kg, 360 min, individual mice
  Plasma level: 2.4 µM and 2.19 µM
[2]; SQ 12.2 mg/kg, 1440 min, AVG
  Plasma level: 0.01 µM
[2]; SQ 12.2 mg/kg, 1440 min, individual mice
  Plasma level: 0 μM (2×) and 0.03 μM
[2]; SQ 12.2 mg/kg, AVG
  AUC0-t: 1879.54 µmol·min/L
  AUC0-∞: 2867.17 µmol·min/L
  CI/F: 7.96e-05 L/min
  Cmax: 4140 nM
  T1/2: 3.7563 h
  Tmax: 2.5 h
[2]; SQ 12.2 mg/kg, individual mice
  AUC0-t: 730.93 µmol·min/L and 3578.6 µmol·min/L and 1329.09 µmol·min/L
  AUC0-∞: 3585.94 µmol·min/L and 2148.41 µmol·min/L
  CI/F: 5.97e-05 L/min and 9.96e-05 L/min
  Cmax: 2400 nM and 4880 nM and 5150 nM
  T1/2: 3.1823 h and 4.3302 h
[2]; [5]
  level at time molar at 0.25 h: 2580 ± 590 nM
  level at time molar at 0.5 h: 2920 ± 630 nM
  level at time molar at 1 h: 1780 ± 310 nM
  level at time molar at 2 h: 720 ± 150 nM
  level at time molar at 4 h: 160 ± 30 nM
  level at time molar at 6 h: 70 ± 60 nM
[2]; [6]
  CL/F: 0.0796 mL/min
  level at time molar at 0.25 h: 2530 ± 1180 nM
  level at time molar at 0.5 h: 3550 ± 1670 nM
  level at time molar at 1 h: 3930 ± 1780 nM
  level at time molar at 6 h: 2290 ± 150 nM
  level at time molar at 24 h: 10 ± 20 nM
[2]; mouse, in vivo
  bioavailability: 7.5 to 11%
[2]; mouse, in vivo, sc, 12.2 mg/kg
  Cmax: 4140 ± 1510 nM
  Tmax: 2.5 h
  half-life: 3.76 ± 0.812 h

## CC[C@@H](C)[C@H]1NC(=O)[C@H]2CCCN2C(=O)[C@@H]2CCCN2C(=O)[C@@H](CC(C)C)NC(=O)[C@H](C)NC(=O)[C@@H](CC(C)C)N(C)C(=O)[C@@H](C)N(C)C(=O)[C@@H]2CCCN2C(=O)[C@@H]([C@H](C)CC)NC(=O)[C@@H](CC(C)C)N(C)C1=O [Design D10.39, P*a*lAlPpi*li] (cyclo(A[dL]P[dP][dI][dNMeL][dI]P[dNMeA][dNMeL]))
[3]
  PAMPA_Papp_Avg (apparent permeability): 1.48 ×10⁻⁶ cm/s

## CC[C@H](C)[C@@H]1NC(=O)[C@H](Cc2ccccc2)N(C)C(=O)[C@H](CC(C)C)N(C)C(=O)[C@@H](C(C)C)NC(=O)[C@@H](C)NC(=O)[C@@H]2CCCN2C(=O)[C@@H](CC(C)C)NC(=O)[C@@H]2CCCN2C(=O)[C@H](C)NC1=O [Design D9.6, Pav*L*FIAPl] (cyclo(AP[dL]P[dA][dV][NMeL][NMeF]I))
[3]
  PAMPA_Papp_Avg (apparent permeability): 1.63 ×10⁻⁶ cm/s

## CC[C@@H](C)[C@H]1NC(=O)[C@@H](CC(C)C)NC(=O)C(C)(C)NC(=O)[C@@H]2CCCN2C(=O)[C@@H]([C@H](C)CC)NC(=O)[C@@H](CC(C)C)NC(=O)C(C)(C)NC(=O)[C@@H]2CCCN2C1=O [Design D8.2, PBliPBLi] (cyclo([Aib][dL][dI]P[Aib][dL][dI]P))
[3]
  PAMPA_Papp_Avg (apparent permeability): 7.49 ×10⁻⁶ cm/s
